In this assay the target is T1, human kinase Mps-1 (Homo sapiens, UniProt P33981).
T1 construct: N-terminally GST-tagged human full length recombinant Mps-1 kinase; GST (N); purchased Invitrogen, Karslruhe, Germany PV4071
T1 sequence (P33981 1-857): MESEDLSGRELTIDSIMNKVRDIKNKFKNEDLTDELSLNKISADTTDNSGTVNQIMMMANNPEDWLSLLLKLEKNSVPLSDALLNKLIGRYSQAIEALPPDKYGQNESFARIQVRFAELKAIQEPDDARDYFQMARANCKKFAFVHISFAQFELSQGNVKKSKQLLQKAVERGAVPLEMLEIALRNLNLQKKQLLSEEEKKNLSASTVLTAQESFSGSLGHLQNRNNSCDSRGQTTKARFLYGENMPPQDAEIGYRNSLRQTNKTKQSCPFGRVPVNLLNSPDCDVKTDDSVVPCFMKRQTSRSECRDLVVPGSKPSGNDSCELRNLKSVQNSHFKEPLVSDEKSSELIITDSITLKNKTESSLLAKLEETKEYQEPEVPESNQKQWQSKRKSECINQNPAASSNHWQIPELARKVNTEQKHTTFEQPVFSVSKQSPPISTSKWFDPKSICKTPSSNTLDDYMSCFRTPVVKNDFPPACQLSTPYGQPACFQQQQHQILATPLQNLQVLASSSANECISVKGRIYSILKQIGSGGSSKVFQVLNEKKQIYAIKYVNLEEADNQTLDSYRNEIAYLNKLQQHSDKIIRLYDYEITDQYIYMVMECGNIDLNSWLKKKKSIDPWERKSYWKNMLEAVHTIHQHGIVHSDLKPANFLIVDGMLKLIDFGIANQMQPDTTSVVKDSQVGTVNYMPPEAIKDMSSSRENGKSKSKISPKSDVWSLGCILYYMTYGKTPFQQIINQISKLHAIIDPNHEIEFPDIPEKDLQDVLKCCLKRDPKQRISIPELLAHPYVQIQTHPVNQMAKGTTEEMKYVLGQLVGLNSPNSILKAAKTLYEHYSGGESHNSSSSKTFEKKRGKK
The experiment in a line: Mps-1 kinase assay (TR-FRET). The settings on record: Mps-1 TR-FRET kinase assay; avg; read-out: Mps1 avg (IC50 [mol/l]). The format is biochemical. A digest of the protocol:
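Inhibition normalised between uninhibited reaction (0%) and enzyme-free wells (100%), using the blank-corrected TR-FRET 665/620 nm ratio after EDTA stop. Reaction: ~0.5 nM GST-Mps-1 full length, 10 μM ATP, 1 μM biotin-peptide, 60 min at 22 °C, after 15 min compound pre-binding, pH 7.7.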
On the technique in general: TR-FRET usually uses a lanthanide donor and a delayed reading to cut background.

Consider `Cc1nsc(Nc2cnc(C(F)(F)F)cn2)c1C(=O)Nc1ccc(F)c(OC2CCN(CCF)CC2)c1` [Example 266, N-(4-fluoro-3-{[1-(2-fluoroethyl)piperidin-4-yl]oxy}phenyl)-3-methyl-5-{[5-(trifluoromethyl)pyrazin-2-yl]amino}-1,2-thiazole-4-carboxamide], for which the IC50 is greater than 20 µM.
For `Cc1nsc(Nc2cnc3ccccc3n2)c1C(=O)Nc1cccc(NS(=O)(=O)C2CN(CC(F)(F)F)C2)c1` [Example 285, 3-methyl-5-(quinoxalin-2-ylamino)-N-[3-({[1-(2,2,2-trifluoroethyl)azetidin-3-yl]sulfonyl}amino)phenyl]-1,2-thiazole-4-carboxamide] the value was greater than 20 µM; for `Cc1nsc(Nc2cnc3ccccc3n2)c1C(=O)Nc1cccc(NS(=O)(=O)C2CCN(CCC(F)(F)F)CC2)c1` [Example 283, 3-methyl-5-(quinoxalin-2-ylamino)-N-[3-({[1-(3,3,3-trifluoropropyl)piperidin-4-yl]sulfonyl}amino)phenyl]-1,2-thiazole-4-carboxamide], greater than 20 µM.
Under `Cc1nsc(Nc2cnc(C(F)(F)F)cn2)c1C(=O)Nc1ccc(OC2CCN(CC(F)F)C2)nc1` (stereo not drawn) [Example 296, N-(6-{[1-(2,2-difluoroethyl)pyrrolidin-3-yl]oxy}pyridin-3-yl)-3-methyl-5-{[5-(trifluoromethyl)pyrazin-2-yl]amino}-1,2-thiazole-4-carboxamide] stands greater than 20 µM; under `Cc1nsc(Nc2cnc(C(F)(F)F)cn2)c1C(=O)Nc1ccc(OCCNCCF)nc1` [Example 321, N-(6-{2-[(2-fluoroethyl)amino]ethoxy}pyridin-3-yl)-3-methyl-5-{[5-(trifluoromethyl)pyrazin-2-yl]amino}-1,2-thiazole-4-carboxamide], no less than 20 µM.
Under `COC(=O)CCCc1ccc(NC(=O)c2c(C)nsc2Nc2cc(C#N)ccn2)cc1` [Example 256, methyl 4-{4-[({5-[(4-cyanopyridin-2-yl)amino]-3-methyl-1,2-thiazol-4-yl}carbonyl)amino]phenyl}butanoate] stands greater than 20 µM; under `CCN1CCC(Oc2ccc(NC(=O)c3c(C)nsc3Nc3cc(C#N)ccn3)cn2)CC1` [Example 26, 5-[(4-Cyanopyridin-2-yl)amino]-N-{6-[(1-ethylpiperidin-4-yl)oxy]pyridin-3-yl}-3-methyl-1,2-thiazole-4-carboxamide], no less than 20 µM.
`Cc1nsc(Nc2cnc(C(F)(F)F)cn2)c1C(=O)Nc1ccc(OCCO)nc1` [Example 277, N-[6-(2-hydroxyethoxy)pyridin-3-yl]-3-methyl-5-{[5-(trifluoromethyl)pyrazin-2-yl]amino}-1,2-thiazole-4-carboxamide]: the IC50 was greater than 20 µM.
Under `Cc1nsc(Nc2cncc(C(F)(F)F)n2)c1C(=O)Nc1ccc(OC2CCN(CCC(F)(F)F)CC2)nc1` [Example 304, 3-methyl-5-{[6-(trifluoromethyl)pyrazin-2-yl]amino}-N-(6-{[1-(3,3,3-trifluoropropyl)piperidin-4-yl]oxy}pyridin-3-yl)-1,2-thiazole-4-carboxamide] stands greater than 20 µM; under `Cc1nsc(Nc2cnc(C(F)(F)F)cn2)c1C(=O)Nc1ccc(N(C)C)c(OCCCN(C)CCC(F)(F)F)c1` [Example 300, N-[4-(dimethylamino)-3-{3-[methyl(3,3,3-trifluoropropyl)amino]propoxy}phenyl]-3-methyl-5-{[5-(trifluoromethyl)pyrazin-2-yl]amino}-1,2-thiazole-4-carboxamide], greater than 20 µM.
Take `Cc1nsc(Nc2cnc(C(F)(F)F)cn2)c1C(=O)Nc1ccc(F)c(OCC2CCN(CC(F)F)C2)c1` (stereo not drawn) [Example 316, N-(3-{[1-(2,2-difluoroethyl)pyrrolidin-3-yl]methoxy}-4-fluorophenyl)-3-methyl-5-{[5-(trifluoromethyl)pyrazin-2-yl]amino}-1,2-thiazole-4-carboxamide]: the IC50 is no less than 20 µM.
Under `Cc1nsc(Nc2cnc3ccccc3n2)c1C(=O)Nc1cccc(NS(=O)(=O)C2CN(CCF)C2)c1` [Example 287, N-[3-({[1-(2-fluoroethyl)azetidin-3-yl]sulfonyl}amino)phenyl]-3-methyl-5-(quinoxalin-2-ylamino)-1,2-thiazole-4-carboxamide] stands greater than 20 µM; under `Cc1nsc(Nc2cnc3ccccc3n2)c1C(=O)Nc1cccc(NS(=O)(=O)C2CCN(CC(F)(F)F)CC2)c1` [Example 281, 3-methyl-5-(quinoxalin-2-ylamino)-N-[3-({[1-(2,2,2-trifluoroethyl)piperidin-4-yl]sulfonyl}amino)phenyl]-1,2-thiazole-4-carboxamide], greater than 20 µM; under `Cc1nsc(Nc2cnc(C(F)(F)F)cn2)c1C(=O)Nc1ccc(OCCNCC(F)(F)F)nc1` [Example 322, 3-methyl-N-(6-{2-[(2,2,2-trifluoroethyl)amino]ethoxy}pyridin-3-yl)-5-{[5-(trifluoromethyl)pyrazin-2-yl]amino}-1,2-thiazole-4-carboxamide], no less than 20 µM.
For the molecule `Cc1nsc(Nc2cnc(C(F)(F)F)cn2)c1C(=O)Nc1ccc(F)c(OCC2CCN(CC(F)F)CC2)c1` [Example 308, N-(3-{[1-(2,2-difluoroethyl)piperidin-4-yl]methoxy}-4-fluorophenyl)-3-methyl-5-{[5-(trifluoromethyl)pyrazin-2-yl]amino}-1,2-thiazole-4-carboxamide], the IC50 was no less than 20 µM.
`Cc1nsc(Nc2cnc(C(F)(F)F)cn2)c1C(=O)Nc1ccc(C(=O)NC2CN(CC(F)(F)F)C2)cc1` [Example 270, 3-methyl-N-(4-{[1-(2,2,2-trifluoroethyl)azetidin-3-yl]carbamoyl}phenyl)-5-{[5-(trifluoromethyl)pyrazin-2-yl]amino}-1,2-thiazole-4-carboxamide]: the IC50 was greater than 20 µM.
Take `Cc1nsc(Nc2cnc(C(F)(F)F)cn2)c1C(=O)Nc1ccc(N(C)C)c(OCCCN(C)CC(F)(F)F)c1` [Example 299, N-[4-(dimethylamino)-3-{3-[methyl(2,2,2-trifluoroethyl)amino]propoxy}phenyl]-3-methyl-5-{[5-(trifluoromethyl)pyrazin-2-yl]amino}-1,2-thiazole-4-carboxamide]: the IC50 was greater than 20 µM.
On to `Cc1nsc(Nc2cc(C#N)ccn2)c1C(=O)Nc1ccc(OC2CCN(CC(F)(F)F)CC2)nc1` [Example 25, 5-[(4-Cyanopyridin-2-yl)amino]-3-methyl-N-(6-{[1-(2,2,2-trifluoroethyl)piperidin-4-yl]oxy}pyridin-3-yl)-1,2-thiazole-4-carboxamide], for which the IC50 is no less than 20 µM.
Consider `Cc1nsc(Nc2cnc(C(F)(F)F)cn2)c1C(=O)Nc1ccc(OC2CCN(CC(F)(F)F)C2)nc1` (stereo not drawn) [Example 297, 3-methyl-N-(6-{[1-(2,2,2-trifluoroethyl)pyrrolidin-3-yl]oxy}pyridin-3-yl)-5-{[5-(trifluoromethyl)pyrazin-2-yl]amino}-1,2-thiazole-4-carboxamide], for which the IC50 was 12 µM.
As to `Cc1nsc(Nc2cnc(C(F)(F)F)cn2)c1C(=O)Nc1ccc(OC2CCN(CCF)C2)nc1` (stereo not drawn) [Example 295, N-(6-{[1-(2-fluoroethyl)pyrrolidin-3-yl]oxy}pyridin-3-yl)-3-methyl-5-{[5-(trifluoromethyl)pyrazin-2-yl]amino}-1,2-thiazole-4-carboxamide], the IC50 is greater than 20 µM.
`Cc1nsc(Nc2ccc(C#N)cn2)c1C(=O)Nc1cccc(C(=O)NC2CC2)c1` [Example 250, 5-[(5-cyanopyridin-2-yl)amino]-N-[3-(cyclopropylcarbamoyl)phenyl]-3-methyl-1,2-thiazole-4-carboxamide]: the IC50 is greater than 20 µM.
Under `COC(=O)CCc1cccc(NC(=O)c2c(C)nsc2Nc2cnc3ccccc3n2)c1` [Example 257, methyl 3-[3-({[3-methyl-5-(quinoxalin-2-ylamino)-1,2-thiazol-4-yl]carbonyl}amino)phenyl]propanoate] stands greater than 20 µM; under `CCNC(=O)c1cccc(NC(=O)c2c(C)nsc2Nc2ccc(C#N)cn2)c1` [Example 252, 5-[(5-cyanopyridin-2-yl)amino]-N-[3-(ethylcarbamoyl)phenyl]-3-methyl-1,2-thiazole-4-carboxamide], greater than 20 µM.
As for `Cc1nsc(Nc2cnc3ccccc3n2)c1C(=O)Nc1ccc(OC2CCN(CC(F)(F)F)CC2)nc1` [Example 21, 3-Methyl-5-(quinoxalin-2-ylamino)-N-(6-{[1-(2,2,2-trifluoroethyl)piperidin-4-yl]oxy}-pyridin-3-yl)-1,2-thiazole-4-carboxamide], the IC50 is no less than 20 µM.

Source of the values: patent US20170334899A1, “AMINO-SUBSTITUTED ISOTHIAZOLES” (Bayer Pharma Aktiengesellschaft, priority 2014, published 2017).
